Results: patent US20230247994A1, “HETEROCYCLENE DERIVATIVES AS PEST CONTROL AGENTS” (Bayer Aktiengesellschaft, priority 2020, published 2023)

How the values were obtained:
Assay type in all cases: in vivo
Diabrotica balteata = Diabrotica balteata spray test (germinated wheat grains); conditions: 168 h, application rate 100 g/ha (=32 μg/cavity), after 7 days, beetle larvae on wheat, 100% = all wheat plants grown as in untreated, uninfected control, read-out: efficacy in %
Source text: Diabrotica Balteata—Spray Test Solvent: 78 parts by weight of acetone • • 1.5 parts by weight of dimethylformamide Emulsifier: alkylaryl polyglycol ether An appropriate active ingredient formulation is produced by dissolving 1 part by weight of active ingredient with the stated parts by weight of solvent and making the solution up to the desired concentration with water containing an emulsifier concentration of 1000 ppm. Further test concentrations are produced by diluting the formulation with emulsifier-containing water. Pre-swollen wheat grains (Triticum aestivum) are incubated in a multiwell plate filled with agar and a little water for one day (5 seed grains per cavity). The germinated wheat grains are sprayed with an active ingredient formulation of the desired concentration. Subsequently, each cavity is infected with 10-20 beetle larvae of Diabrotica balteata. After 7 days, efficacy in % is determined. 100% means that all wheat plants have grown as in the untreated, uninfected control; 0% means that no wheat plant has grown.

Myzus persicae [1] = test: Myzus persicae spray test (bell pepper plants); conditions: application rate 20 ppm, after 6 days, 100% = all aphids killed
Source text: Myzus persicae—spray test Solvent: 14 parts by weight of dimethylformamide Emulsifier: alkylaryl polyglycol ether An appropriate active ingredient formulation is produced by dissolving 1 part by weight of active ingredient with the stated parts by weight of solvent and making the solution up to the desired concentration with water containing an emulsifier concentration of 1000 ppm. Further test concentrations are produced by diluting the formulation with emulsifier-containing water. If the addition of ammonium salts or/and penetration enhancers is required, these are each added in a concentration of 1000 ppm to the formulation solution. Bell pepper plants (Capsicum annuum) severely infested with the green peach aphid (Myzus persicae) are treated by spraying with the active ingredient formulation in the desired concentration. After 6 days, the kill in % is determined. 100% means that all of the aphids have been killed; 0% means that none of the aphids have been killed.

Spodoptera frugiperda = Spodoptera frugiperda spray test (maize leaf disks); conditions: foliar, 168 h, caterpillars, after 7 days, 100% = all caterpillars killed, read-out: efficacy in %; for pest or weed control at 100 g/ha: application rate 100 g/ha
Source text: Spodoptera frugiuerda—Spray Test
Solvent: 78.0 parts by weight of acetone • • 1.5 parts by weight of dimethylformamide
Emulsifier: alkylaryl polyglycol ether
An appropriate active ingredient formulation is produced by dissolving 1 part by weight of active ingredient with the stated parts by weight of solvent and making the solution up to the desired concentration with water containing an emulsifier concentration of 1000 ppm. Further test concentrations are produced by diluting the formulation with emulsifier-containing water.
Leaf disks of maize (Zea mays) are sprayed with an active ingredient formulation of the desired concentration and, after drying, populated with caterpillars of the fall armyworm (Spodopterafrugiperda).
After 7 days, efficacy in % is determined. 100% means that all of the caterpillars have been killed; 0% means that none of the caterpillars have been killed.

Myzus persicae [2] = test: Myzus persicae oral test; conditions: application rate 20 ppm, after 5 days, 100% = all aphids killed
Method: Myzus persicae—Oral Test Solvent: 100 parts by weight of acetone An appropriate active ingredient formulation is produced by dissolving 1 part by weight of active ingredient with the specified parts by weight of solvent and making the solution up to the desired concentration with water. 50 μl of the active ingredient formulation is transferred into microtiter plates and made up to a final volume of 200 μl with 150 μl of IPL41 insect medium (33%+15% sugar). Subsequently, the plates are sealed with parafilm, which a mixed population of green peach aphids (Myzus persicae) within a second microtiter plate is able to puncture and imbibe the solution. After 5 days, efficacy in % is determined. 100% means that all of the aphids have been killed; 0% means that none of the aphids have been killed.

Meloidogyne incognita = Meloidogyne incognita test (lettuce, gall formation); conditions: application rate 20 ppm, after 14 days, 100% = no galls found
Source text: Meloidogyne Incognita Test Solvent: 125.0 parts by weight of acetone An appropriate active ingredient formulation is produced by mixing 1 part by weight of active ingredient with the stated amount of solvent and diluting the concentrate to the desired concentration with water. Vessels are filled with sand, active ingredient solution, an egg/larvae suspension of the southern root-knot nematode (Meloidogyne incognita) and lettuce seeds. The lettuce seeds germinate and the plants develop. The galls develop on the roots. After 14 days, the nematicidal efficacy in % is determined by the formation of galls. 100% means that no galls were found; 0% means that the number of galls on the treated plants corresponds to the untreated control.

Nezara viridula = Nezara viridula spray test (barley plants); conditions: 96 h, application rate 500 g/ha, larvae, after 4 days, 100% = all shield bugs killed, read-out: efficacy in %
Source text: Nezara viridula—Spray Test Solvent: 78.0 parts by weight of acetone • • 1.5 parts by weight of dimethylformamide Emulsifier: alkylaryl polyglycol ether An appropriate active ingredient formulation is produced by dissolving 1 part by weight of active ingredient with the stated parts by weight of solvent and making the solution up to the desired concentration with water containing an emulsifier concentration of 1000 ppm. Further test concentrations are produced by diluting the formulation with emulsifier-containing water. Barley plants (Hordeum vulgare) are sprayed with an active ingredient formulation of the desired concentration and are infected with larvae of the Southern green shield bug (Nezara viridula). After 4 days, efficacy in % is determined. 100% means that all of the shield bugs have been killed; 0% means that none of the shield bugs have been killed.

Nilaparvata lugens = Nilaparvata lugens test (rice plants); conditions: application rate 500 g/ha, spray, after 4 days, 100% = all planthoppers killed
Source text: Nilaparvata lugens Test Solvent: 78.0 parts by weight of acetone • • 1.5 parts by weight of dimethylformamide Emulsifier: alkylaryl polyglycol ether An appropriate active ingredient formulation is produced by dissolving 1 part by weight of active ingredient with the stated parts by weight of solvent and making the solution up to the desired concentration with water containing an emulsifier concentration of 1000 ppm. Further test concentrations are produced by diluting the formulation with emulsifier-containing water. Rice plants (Oryza sativa) are sprayed with the active ingredient formulation of the desired concentration and then infected with the brown planthopper (Nilaparvata lugens). After 4 days, efficacy in % is determined. 100% means that all of the planthoppers have been killed; 0% means that none of the planthoppers have been killed.

SMILES | pest or weed control at 100 g/ha (Diabrotica balteata) | kill in % (efficacy) (Myzus persicae [1]) | pest or weed control at 100 g/ha (Spodoptera frugiperda) | efficacy in % (Myzus persicae [2]) | nematicidal efficacy in % (formation of galls) (Meloidogyne incognita) | pest or weed control at 500 g/ha (Spodoptera frugiperda; application rate 500 g/ha) | pest or weed control at 500 g/ha (Nezara viridula) | efficacy in % (Nilaparvata lugens)
CCS(=O)(=O)c1c(-c2nc3cc4c(cc3n2C)OC(F)(F)C(F)(F)O4)nc(C2CC2)n1C [Example I-9, 2-[2-Cyclopropyl-5-(ethylsulfonyl)-1-methyl-1H-imidazol-4-yl]-6,6,7,7-tetrafluoro-1-methyl-6,7-dihydro-1H-[1,4]dioxino[2,3-f]benzimidazole] | 100% | 99% | 83% |  |  |  |  | 
CCS(=O)(=O)c1c(-c2nc3cc4c(cc3[nH]2)OC(F)(F)C(F)(F)O4)nc(C2CC2)n1C [Example I-8, 2-[2-Cyclopropyl-5-(ethylsulfonyl)-1-methyl-1H-imidazol-4-yl]-6,6,7,7-tetrafluoro-6,7-dihydro-1H-[1,4]dioxino[2,3-f]benzimidazole] | 100% |  |  | 100% | 90% | 100% |  | 
CCS(=O)(=O)c1c(-c2nc3cc4c(cc3n2C)OC(F)(F)C(F)(F)O4)nc(-c2cccc(Br)n2)n1C [Example I-30, 2-[2-(6-Bromopyridin-2-yl)-5-(ethylsulfonyl)-1-methyl-1H-imidazol-4-yl]-6,6,7,7-tetrafluoro-1-methyl-6,7-dihydro-1H-[1,4]dioxino[2,3-f]benzimidazole] | 100% |  | 100% |  |  |  | 100% | 100%
CCS(=O)(=O)c1c(-c2nc3cc4c(cc3n2C)OC(F)(F)C(F)(F)O4)nc(-c2cccc(C3(C#N)CC3)n2)n1C [Example I-28, 1-{6-[5-(Ethylsulfonyl)-1-methyl-4-(6,6,7,7-tetrafluoro-1-methyl-6,7-dihydro-1H-[1,4]dioxino[2,3-f]benzimidazol-2-yl)-1H-imidazol-2-yl]pyridin-2-yl}cyclopropanecarbonitrile] |  |  | 100% |  |  |  | 100% | 100%
CCS(=O)(=O)c1c(-c2nc3cc4c(cc3n2C)OC(F)(F)C(F)(F)O4)nc(-c2cccc(Cl)n2)n1C [Example I-21, 2-[2-(6-Chloropyridin-2-yl)-5-(ethylsulfonyl)-1-methyl-1H-imidazol-4-yl]-6,6,7,7-tetrafluoro-1-methyl-6,7-dihydro-1H-[1,4]dioxino[2,3-f]benzimidazole] | 100% |  | 100% |  |  |  | 100% | 90%
